Results published in patent US12122761B2, “2-azaspiro[3.4]octane derivatives as M4 agonists” (NOVARTIS AG, priority 2019, dated 2024).
Read-outs that look alike come from different tables or passages of the source.

Tests used:
Format in all cases: cell-based
[1] = target: T1, human cloned CHRM5 receptor (M5_CHO) (Homo sapiens, UniProt P08912); assay: CHRM5 Ca++ Flux Assay (agonist mode, FDSS 7000EX); conditions: for M5 FDSS PA: Percent Activity measured to EC100 of Carbachol; for EC50: agonist mode, geometric mean if tested more than once, read-out: M5 FDSS EC50
T1 construct: expressed in transfected cells; host or cells: CHO (M5_CHO)
T1 sequence (P08912 1-532): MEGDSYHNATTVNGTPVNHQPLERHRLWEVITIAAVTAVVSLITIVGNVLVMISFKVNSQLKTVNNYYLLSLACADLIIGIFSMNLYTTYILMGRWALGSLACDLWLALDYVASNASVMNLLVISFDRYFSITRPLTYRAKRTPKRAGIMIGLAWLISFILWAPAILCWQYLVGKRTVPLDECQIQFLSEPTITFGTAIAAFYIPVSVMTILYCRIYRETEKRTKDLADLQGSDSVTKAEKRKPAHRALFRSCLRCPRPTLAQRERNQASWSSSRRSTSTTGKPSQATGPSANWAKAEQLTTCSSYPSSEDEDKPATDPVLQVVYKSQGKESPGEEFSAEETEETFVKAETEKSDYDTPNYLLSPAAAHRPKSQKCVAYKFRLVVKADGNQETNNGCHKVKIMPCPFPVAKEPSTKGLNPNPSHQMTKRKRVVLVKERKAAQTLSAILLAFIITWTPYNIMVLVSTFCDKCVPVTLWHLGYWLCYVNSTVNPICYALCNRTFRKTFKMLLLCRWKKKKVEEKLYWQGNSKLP
Method: (§1) The above examples were characterized by measuring the intracellular mobilization of Ca++ ions caused by signaling events mediated by the receptor. The Intra-cellular Calcium flux levels were captured by the highly sensitive Ca++ indicator, Calcium Assay Kit (BD Biosciences, Catalog Number 640178). The fluorescent activity from all receptors were monitored by the fluorescent imager, FDSS 7000EX (Hamamatsu) over a span of 3 minutes.
(§2) CHO-K1 cells stably expressing the human cloned CHRM3 receptor (M3_CHO cells) were grown and maintained in a monolayer culture with F12/HAM (Life Technologies) supplemented with 10% Fetal Bovine Serum, 1× Pen-Strep, and 0.4 mg/mL Geneticin in a humidified atmosphere (5% CO2) at 37° C. The cultures were grown to 80-9 0% confluency in T150 flasks (Corning) and washed with 1×DPBS and lifted with 0.05% Trypsin (Life Technologies). The cells were then spun (1K rpm, 3 minutes) and frozen using Recovery Cell Culture Freezing Media (Gibco Technologies). Cells were stored in liquid nitrogen and thawed a day before the assay. A similar procedure was used for cells stably expressing the human cloned CHRM5 receptor (M5_CHO).
(§3) Prior to the day of the assay, stable M3_CHO or M5_CHO cells were thawed and plated on Greiner 384 well black TC treated plates at 12K cells/well in F12/DMEM supplemented with 10% FBS (Hyclone) and kept overnight in a humidified atmosphere (5% CO2) at 37° C. The next day, cells were loaded with Ca^++ dye (BD Biosciences) using Loading Buffer (HBSS +Ca/+Mg, 20 mM HEPES, 2.5 mM Probenecid) and placed back in cell incubator for a minimum of 1 hour. After incubation, the dye was replaced with Assay Buffer (HBSS −Ca/−Mg, 20 mM HEPES, 2.5 mM Probenecid) and kept at room temperature in the dark before running on cell imager. The FDSS 7000EX (Hamamatsu) was used to acquire Ca^++ traces from cells treated with 11 point dose response of compounds in triplicate in order to generate dose response curves in agonist mode. All compounds were serially diluted in DMSO then prepared in Assay Buffer for Ca^++ flux studies. The dose response curves were generated from the average of triplicate wells obtained from each data point and used a non-linear regression of four parameter dose response algorithm. The Percent Activity (PA) was measured to EC100 of Carbachol.

[2] = target: T2, human cloned CHRM4 receptor (M4_CHO cells) (Homo sapiens, UniProt P08173); assay: CHRM4 Ca++ Flux Assay (agonist mode, FDSS 7000EX); conditions: for M4 FDSS PA: Percent Activity; for EC50: geometric mean if tested more than once, read-out: M4 FDSS EC50
T2 construct: expressed in transfected cells; host or cells: CHO-K1
T2 sequence (P08173 1-479): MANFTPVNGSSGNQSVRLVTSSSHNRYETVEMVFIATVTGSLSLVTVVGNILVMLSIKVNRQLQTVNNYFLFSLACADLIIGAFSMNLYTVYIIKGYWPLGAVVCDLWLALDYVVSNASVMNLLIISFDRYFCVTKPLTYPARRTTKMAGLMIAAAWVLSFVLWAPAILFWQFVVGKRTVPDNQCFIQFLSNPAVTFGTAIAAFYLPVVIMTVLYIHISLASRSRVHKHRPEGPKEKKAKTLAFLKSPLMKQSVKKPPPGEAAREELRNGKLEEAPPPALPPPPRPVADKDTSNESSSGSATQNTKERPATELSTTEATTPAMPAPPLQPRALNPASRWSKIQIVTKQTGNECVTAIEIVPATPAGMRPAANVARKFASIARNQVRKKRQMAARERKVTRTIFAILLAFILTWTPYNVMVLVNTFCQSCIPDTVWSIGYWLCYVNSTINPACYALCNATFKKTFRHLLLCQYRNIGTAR
Method: as §1
CHO-K1 cells stably expressing the human cloned CHRM4 receptor (M4_CHO cells) were grown and maintained in a monolayer culture with F12/HAM (Life Technologies) supplemented with 10% Fetal Bovine Serum, 1× Pen-Strep, and 0.4 mg/mL Geneticin in a humidified atmosphere (5% CO2) at 37° C. The cultures were grown to 80-90% confluency in T150 flasks (Corning) and washed with 1×DPBS then lifted with 0.05% Trypsin (Life Technologies). The cells were harvested in growth media then spun (1K rpm, 3 minutes) and cryopreserved using Recovery Cell Culture Freezing Media (Gibco Technologies). Cells were stored in liquid nitrogen and thawed a day before the assay.
Prior to the day of the assay, stable M4_CHO cells were thawed and plated on 384 well black walled clear bottom TC treated plates (Greiner Cat #781091) at 12K cells/well using F12/HAM Media supplemented with 10% FBS (Life Technologies) and kept overnight in a humidified atmosphere (5% CO2) at 37° C. The next day, cells were loaded with […] Ca^++ dye (BD Biosciences) using Loading Buffer (HBSS +Ca/+Mg, 20 mM HEPES, 2.5 mM Probenecid) and placed back in cell incubator for a minimum of 1 hour. After incubation, the dye was replaced with 45 μL Assay Buffer (HBSS −Ca/−Mg, 20 mM HEPES, 2.5 mM Probenecid) supplemented with 20 μM ATP (Sigma Aldrich) and kept at room temperature in the dark for 60 minutes before running on a cell imager. The FDSS 7000EX (Hamamatsu) was used to capture Ca^++ traces for a span of 3 minutes from cells treated with 11 point dose of compound in triplicate in order to generate dose response curves in agonist mode. All compounds were serially diluted in DMSO then prepared in Assay Buffer for Ca^++ flux studies. The dose response curves were generated from the average of triplicate wells obtained from each data point and used a non-linear regression of four parameter dose response algorithm. The Percent Activity (PA) was measured to EC100 of Carbachol.

[3] = target: T3, human cloned CHRM3 receptor (M3_CHO cells) (Homo sapiens, UniProt P20309); assay: CHRM3 Ca++ Flux Assay (agonist mode, FDSS 7000EX); conditions: for M3 FDSS PA: Percent Activity measured to EC100 of Carbachol; for EC50: agonist mode, geometric mean if tested more than once, read-out: M3 FDSS EC50
T3 construct: expressed in transfected cells; host or cells: CHO-K1
Method: as §1, §2, §3

T3 sequence (P20309 whole entry): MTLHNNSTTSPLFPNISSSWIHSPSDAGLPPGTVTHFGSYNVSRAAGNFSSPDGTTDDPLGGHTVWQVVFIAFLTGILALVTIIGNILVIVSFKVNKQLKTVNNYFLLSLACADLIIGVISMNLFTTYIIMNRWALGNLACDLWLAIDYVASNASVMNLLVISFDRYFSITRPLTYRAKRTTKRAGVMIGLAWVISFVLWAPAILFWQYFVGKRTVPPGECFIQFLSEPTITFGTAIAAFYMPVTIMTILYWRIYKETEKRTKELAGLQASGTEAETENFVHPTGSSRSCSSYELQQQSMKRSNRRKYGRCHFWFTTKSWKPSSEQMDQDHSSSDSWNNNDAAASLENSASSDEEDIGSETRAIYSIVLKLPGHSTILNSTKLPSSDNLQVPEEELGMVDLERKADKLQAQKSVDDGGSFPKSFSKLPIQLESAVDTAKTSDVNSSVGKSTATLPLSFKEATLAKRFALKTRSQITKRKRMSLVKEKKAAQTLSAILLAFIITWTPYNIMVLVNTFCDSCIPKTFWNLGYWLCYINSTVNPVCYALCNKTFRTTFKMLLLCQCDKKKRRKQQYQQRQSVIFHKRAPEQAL

Row | M5 FDSS PA [1] [%] | EC50 [1] [nM] | M4 FDSS PA [2] [%] | EC50 [2] [nM] | M3 FDSS PA [3] [%] | EC50 [3] [nM] | SMILES | M5 FDSS PA ([1]; citrate salt) [%] | EC50 ([1]; citrate salt) [nM] | M4 FDSS PA ([2]; citrate salt) [%] | EC50 ([2]; citrate salt) [nM]
1 | 0 | > 25000 | 81 | 1 | 0 | > 25000 | O[C@H]1CC[C@@H](c2ccccc2C2CCN([C@@H]3CCC4(C3)CN(c3nnco3)C4)CC2)CC1 (single isomer, unassigned) [Example 2N, (1S,4s)-4-(2-(1-((R)-2-(1,3,4-oxadiazol-2-yl)-2-azaspiro[3.4]octan-6-yl)piperidin-4-yl)phenyl)cyclohexan-1-ol or (1R,4r)-4-(2-(1-((R)-2-(1,3,4-oxadiazol-2-yl)-2-azaspiro[3.4]octan-6-yl)piperidin-4-yl)phenyl)cyclohexan-1-ol] |  |  |  | 
2 | 0 | > 25000 | 89 | < 0.4 | 0 | > 25000 | OC1CCC(c2ccccc2C2CCN([C@@H]3CCC4(C3)CN(c3nnco3)C4)CC2)CC1 (single isomer, unassigned) [Example 2O, (1s,4r)-4-(2-(1-((R)-2-(1,3,4-oxadiazol-2-yl)-2-azaspiro[3.4]octan-6-yl)piperidin-4-yl)phenyl)cyclohexan-1-ol or (1r,4r)-4-(2-(1-((R)-2-(1,3,4-oxadiazol-2-yl)-2-azaspiro[3.4]octan-6-yl)piperidin-4-yl)phenyl)cyclohexan-1-ol] |  |  |  | 
3 | 0 | > 25000 | 54 | 11 | 0 | > 25000 | O=C(N1CC2(CC[C@@H](N3CCC(c4ccccc4OCCC(F)(F)F)CC3)C2)C1)C1(F)CC1 (single isomer, unassigned) [Example 7AA, (R)-(1-fluorocyclopropyl)(6-(4-(2-(3,3,3-trifluoropropoxy)phenyl)piperidin-1-yl)-2-azaspiro[3.4]octan-2-yl)methanone or (S)-(1-fluorocyclopropyl)(6-(4-(2-(3,3,3-trifluoropropoxy)phenyl)piperidin-1-yl)-2-azaspiro[3.4]octan-2-yl)methanone] |  |  |  | 
4 |  |  |  |  |  |  | O=C(C1COC1)N1CC2(CC[C@H](N3CCC(c4ccccc4OC(F)F)CC3)C2)C1.O=C(O)CC(O)(CC(=O)O)C(=O)O (single isomer, unassigned) [Example 8E, (S)-(6-(4-(2-(difluoromethoxy)phenyl)piperidin-1-yl)-2-azaspiro[3.4]octan-2-yl)(oxetan-3-yl)methanone or (R)-(6-(4-(2-(difluoromethoxy)phenyl)piperidin-1-yl)-2-azaspiro[3.4]octan-2-yl)(oxetan-3-yl)methanone citrate salt] | 1 | 2160 | 61 | 2
5 |  |  |  |  |  |  | O=C(C1COC1)N1CC2(CC[C@H](N3CCC(c4ccccc4OC(F)F)CC3)C2)C1.O=C(O)CC(O)(CC(=O)O)C(=O)O (single isomer, unassigned) [Example 8F, (S)-(6-(4-(2-(difluoromethoxy)phenyl)piperidin-1-yl)-2-azaspiro[3.4]octan-2-yl)(oxetan-3-yl)methanone or (R)-(6-(4-(2-(difluoromethoxy)phenyl)piperidin-1-yl)-2-azaspiro[3.4]octan-2-yl)(oxetan-3-yl)methanone citrate salt] | 0 | > 25000 | 10 | 1110

Row | SMILES | M5 FDSS PA [1] [%] | EC50 [1] [nM] | M4 FDSS PA [2] [%] | EC50 [2] [nM] | M3 FDSS PA [3] [%] | EC50 [3] [nM] | M5 FDSS PA ([1]; citrate salt) [%] | EC50 ([1]; citrate salt) [nM] | M4 FDSS PA ([2]; citrate salt) [%] | EC50 ([2]; citrate salt) [nM]
6 | CC(C)(O)CCOc1ccccc1C1CCN([C@@H]2CCC3(C2)CN(C(=O)C2(F)CC2)C3)CC1 (single isomer, unassigned) [Example 7BB, (R)-(1-fluorocyclopropyl)(6-(4-(2-(3-hydroxy-3-methylbutoxy)phenyl)piperidin-1-yl)-2-azaspiro[3.4]octan-2-yl)methanone or (S)-(1-fluorocyclopropyl)(6-(4-(2-(3-hydroxy-3-methylbutoxy)phenyl)piperidin-1-yl)-2-azaspiro[3.4]octan-2-yl)methanone] | 0 | > 25000 | 38 | 2 | 0 | > 25000 |  |  |  | 
7 | COC(C)(C)CCOc1ccccc1C1CCN([C@@H]2CCC3(C2)CN(C(=O)C2(F)CC2)C3)CC1 (single isomer, unassigned) [Example 7FF, (R)-(1-fluorocyclopropyl)(6-(4-(2-(3-methoxy-3-methylbutoxy)phenyl)piperidin-1-yl)-2-azaspiro[3.4]octan-2-yl)methanone or (S)-(1-fluorocyclopropyl)(6-(4-(2-(3-methoxy-3-methylbutoxy)phenyl)piperidin-1-yl)-2-azaspiro[3.4]octan-2-yl)methanone] | 0 | > 25000 | 38 | 5 | 0 | > 25000 |  |  |  | 
